This is an account of results in patent US20230159445A1, “STAT INHIBITORY COMPOUNDS AND COMPOSITIONS” (JANPIX LIMITED, priority 2020, published 2023).

The IC50 is the point on the concentration scale where inhibition reaches its midpoint. For orientation: half-life means the time in which the quantity being followed falls by half. The low end stands for fast loss, the high end for slow loss.

One series deals with MV4-11 cells. Nature of the series: MV4-11 Cell Cytotoxicity Assay (CellTiter-Blue, 72 h). The format is cell-based, human. The conditions noted are these: Homo sapiens, MV4-11; MV-4-11 cells. In short, it runs like this: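 Cells seeded 24 h before treatment, then exposed 72 h at 37° C, 5% CO2 to inhibitors in triplicate, top concentration 50 μM with 1:2 serial dilutions (0.5% DMSO vehicle). Viability read by CellTiter-Blue fluorescence at 560/590 nm after 1 h.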
In general terms: Alamar Blue is a resazurin reagent that responds to reducing activity.

Series [1] concerns normal human fibroblast (NHF) cells. Put plainly: NHF Cell Cytotoxicity Assay (CellTiter-Blue, 72 h), off-target effects. Format: cell-based. The conditions noted are these: Homo sapiens, Fibroblast; pooled NHF cells. As for the experimental part:
In some embodiments, the off-target effects of the compounds are evaluated in healthy human cells, such as in a normal human fibroblast (NHF) cell cytotoxicity assay.
Cell viability was examined following treatment at various concentrations of inhibitor (0.097656-50 μM) using a cell Titer-Blue cell viability assay. 1×10^4 normal human fibroblast cells per well were plated in 96-well assay plates in culture medium. All cells are grown in DMEM, IMDM and RPMI-1640 were supplemented with 10% FBS. After 24 hours, test compounds and vehicle controls are added to appropriate wells so the final volume was 100 μl in each well. The cells are cultured for the desired test exposure period (72 hours) at 37° C. and 5% CO2. The assay plates are removed from 37° C. incubator and 20 μL/well of CellTiter-Blue® Reagent is added. The plates are incubated using standard cell culture conditions for 1-4 hours and the plates are shaken for 10 seconds and record fluorescence at 560/590nm. For each sample well, value is normalized between the DMSO control and the highest concentration in case of plateau, and converted into a percentage. In the absence of plateau, minimum lecture is obtained from a different sample within the same experiment. For each concentration, the four replicates are averaged and standard deviation calculated. Data is fitted to a log(inhibitor) vs response curve with variable slope model using Microsoft Excel, obtaining IC50 and Hill slope variables.
A person skilled in the art would appreciate that a higher IC50 value in this NHF assay can indicate lower off-target effects.

In a further series the test system is glutathione (GSH). Put plainly: Reactivity Profiling with Glutathione (GSH), half-life by HPLC. The conditions noted are these: 5 mM glutathione (GSH) in IMDM with 10% FBS.

Description for glutathione (GSH): 3.5 μL of 5 mM stocking solution of the inhibitors in DMSO was added to 697.5 μL of Iscove's Modified Dulbecco's Medium (IMDM) supplemented with 10% FBS and antibiotic antimycotic solution, with 5 mM glutathione to afford a final concentration of 25 μM inhibitor with 0.5% DMSO. The solution was then immediately placed in the sample tray at 25° C. […] For each inhibitor, its peak is integrated at different time points and compared to the time zero injection in order to obtain a percentage remaining. Half-life is calculated according to a first order reaction kinetic taking into account those time points for which remaining percentage of inhibitor is above 40%, using the formula: t½=Ln(2)/k, where k is the slope of the linear plot of Ln[Inhibitor] vs time, according to the formula: Ln[A]=Ln[A]0−kt, where [A] is the value resulting from the integration at each time point, [A]0 the value at time zero, and t the time. For each inhibitor, both replicates are averaged and the resulting t½ reported.

For the molecule `CC(C)(C)c1cc(CN(C(=O)CN(Cc2ccccc2F)S(=O)(=O)c2c(F)c(F)c(F)c(F)c2F)c2ccc(C(=O)O)cc2OC2CC2)cc(C2CC2)c1` [Compound 1062, 4-(N-(3-(tert-butyl)-5-cyclopropylbenzyl)-2-(N-(2-fluorobenzyl)-(2,3,4,5,6-pentafluoro-phenyl)sulfonamido)acetamido)-3-cyclopropoxybenzoic acid], the values for the IC50 (in the series with MV4-11 cells; in series [1]) were 0.01 to 316 nM and 10000 to 20000 nM, respectively. For the same molecule, the half-life at 25 μM in the series on glutathione (GSH) lay within 9.23 to 1670 h.

On to `COc1cc(C(=O)O)ccc1N(Cc1cc(C2CC2)cc(C(C)(C)C)c1)C(=O)CN(Cc1c(F)c(F)c(F)c(F)c1F)S(=O)(=O)c1c(F)c(F)c(F)c(F)c1F` [Compound 1066, 4-(N-(3-(tert-butyl)-5-cyclopropylbenzyl)-2-(N-((perfluorophenyl)methyl)-(2,3,4,5,6-pentafluoro-phenyl)sulfonamido)acetamido)-3-methoxybenzoic acid], for which the IC50 with MV4-11 cells was in the range of 0.01 to 316 nM; in series [1], 1 to 10000 nM. Moreover, in the series on glutathione (GSH), the half-life at 25 μM is 4.12 to 9.23 h.

As for `COc1cc(C(=O)O)ccc1N(Cc1cc(C2CC2)cc(C(C)(C)C)c1)C(=O)CN(Cc1ccccc1C#N)S(=O)(=O)c1c(F)c(F)c(F)c(F)c1F` [Compound 1075, 4-(N-(3-(tert-butyl)-5-cyclopropylbenzyl)-2-(N-(2-cyanobenzyl)-(2,3,4,5,6-pentafluorophenyl)sulfon-amido)acetamido)-3-methoxybenzoic acid], the figures for the IC50 (with MV4-11 cells; in series [1]) were 0.01 to 316 nM and 10000 to 20000 nM, respectively. The molecule also displayed a half-life at 25 μM in the series on glutathione (GSH) of 0.00167 to 2.37 h.

Regarding `COc1cc(C(=O)O)ccc1N(Cc1cc(C2CC2)cc(C(C)(C)C)c1)C(=O)CN(Cc1ccncc1F)S(=O)(=O)c1c(F)c(F)c(F)c(F)c1F` [Compound 1078, 4-(N-(3-(tert-butyl)-5-cyclopropylbenzyl)-2-(N-((3-fluoropyridin-4-yl)methyl)-(2,3,4,5,6-pentafluoro-phenyl)sulfonamido)acetamido)-3-methoxybenzoic acid], the figures for the IC50 (in the series on MV4-11 cells; in series [1]) were 316 to 1000 nM and 1 to 10000 nM, respectively. The half-life at 25 μM in the series on glutathione (GSH) is 0.00167 to 2.37 h.

With `COc1cc(C(=O)O)ccc1N(Cc1cc(C2CC2)cc(C(C)(C)C)c1)C(=O)CN(Cc1c(F)cc(F)cc1F)S(=O)(=O)c1c(F)c(F)c(F)c(F)c1F` [Compound 1081], the IC50 was 0.01 to 316 nM in the series with MV4-11 cells and 1 to 10000 nM in series [1]. This molecule also displayed a half-life at 25 μM in the series with glutathione (GSH) of 4.12 to 9.23 h.

On to `COc1cc(C(=O)O)ccc1N(Cc1cc(C2CC2)cc(C(C)(C)C)c1)C(=O)CN(Cc1ccccc1C(F)(F)F)S(=O)(=O)c1c(F)c(F)c(F)c(F)c1F` [Compound 1087, 4-(N-(3-(tert-butyl)-5-cyclopropylbenzyl)-2-(N-(2-(trifluoromethyl)benzyl)-(2,3,4,5,6-pentafluoro-phenyl)sulfonamido)acetamido)-3-methoxybenzoic acid], for which the IC50 with MV4-11 cells was in the range of 0.01 to 316 nM; in series [1], 20000 to 30000 nM. Further, in the series with glutathione (GSH), the half-life at 25 μM lay within 4.12 to 9.23 h.

For the molecule `CC(C)(C)c1cc(CN(C(=O)CN(Cc2ccccc2F)S(=O)(=O)c2c(F)c(F)c(F)c(F)c2F)c2ccc(C(=O)O)cc2C2CC2)cc(C2CC2)c1` [Compound 1091, 4-(N-(3-(tert-butyl)-5-cyclopropylbenzyl)-2-(N-(2-fluorobenzyl)-(2,3,4,5,6-pentafluoro-phenyl)sulfonamido)acetamido)-3-cyclopropylbenzoic acid], the concentration for half-maximal inhibition (IC50) in the series with MV4-11 cells was in the range of 0.01 to 316 nM; in series [1] it was 1 to 10000 nM. In the series with glutathione (GSH), this molecule showed a half-life at 25 μM of 4.12 to 9.23 h.

For `CC(C)(C)c1cc(CN(C(=O)CN(Cc2ccccc2F)S(=O)(=O)c2c(F)c(F)c(F)c(F)c2F)c2ccc(C(=O)O)cc2C(F)(F)F)cc(C2CC2)c1` [Compound 1092, 4-(N-(3-(tert-butyl)-5-cyclopropylbenzyl)-2-(N-(2-fluorobenzyl)-(2,3,4,5,6-pentafluoro-phenyl)sulfonamido)acetamido)-3-(trifluoromethyl)benzoic acid], the IC50 with MV4-11 cells is 0.01 to 316 nM; in series [1], 10000 to 20000 nM. The molecule also gave a half-life at 25 μM with glutathione (GSH) of 4.12 to 9.23 h.

As to `CC(C)(C)c1cc(CN(C(=O)CN(Cc2ccccc2F)S(=O)(=O)c2c(F)c(F)c(F)c(F)c2F)c2ccc(C(=O)O)cc2OC2CCCC2)cc(C2CC2)c1` [Compound 1094, 4-(N-(3-(tert-butyl)-5-cyclopropylbenzyl)-2-(N-(2-fluorobenzyl)-(2,3,4,5,6-pentafluoro-phenyl)sulfonamido)acetamido)-3-(cyclopentyloxy)benzoic acid], the figures for the IC50 (in the series on MV4-11 cells; in series [1]) were 0.01 to 316 nM and 20000 to 30000 nM, respectively. Besides, the half-life at 25 μM in the series with glutathione (GSH) is 9.23 to 1670 h.

Take `COc1cc(C(=O)O)ccc1N(Cc1cc(C2CC2)cc(C(C)(C)C)c1)C(=O)CN(Cc1ncccc1C(F)(F)F)S(=O)(=O)c1c(F)c(F)c(F)c(F)c1F` [Compound 1098, 4-(N-(3-(tert-butyl)-5-cyclopropylbenzyl)-2-(N-((3-(trifluoromethyl)pyridin-2-yl)methyl)-(2,3,4,5,6-pentafluoro-phenyl)sulfonamido)acetamido)-3-methoxybenzoic acid]: the IC50 with MV4-11 cells lay within 316 to 1000 nM; in series [1], 20000 to 30000 nM. For the same molecule, the half-life at 25 μM with glutathione (GSH) is 2.37 to 4.12 h.

Consider `CC(C)(C)c1cc(CN(C(=O)CN(Cc2c(F)c(F)c(F)c(F)c2F)S(=O)(=O)c2c(F)c(F)c(F)c(F)c2F)c2ccc(C(=O)O)cc2OC2CC2)cc(C2CC2)c1` [Compound 1108, 4-(N-(3-(tert-butyl)-5-cyclopropylbenzyl)-2-(N-((perfluorophenyl)methyl)-(2,3,4,5,6-pentafluorophenyl)sulfonamido)acetamido)-3-cyclopropoxybenzoic acid], for which the values for the IC50 (in the series on MV4-11 cells; in series [1]) were 0.01 to 316 nM and 1 to 10000 nM, respectively. Also, the half-life at 25 μM in the series on glutathione (GSH) was in the range of 9.23 to 1670 h.

Turning to `CC(C)(C)c1cc(CN(C(=O)CN(Cc2ccccc2C(F)(F)F)S(=O)(=O)c2c(F)c(F)c(F)c(F)c2F)c2ccc(C(=O)O)cc2OC2CC2)cc(C2CC2)c1` [Compound 1111, 4-(N-(3-(tert-butyl)-5-cyclopropylbenzyl)-2-(N-(2-(trifluoromethyl)benzyl)-(2,3,4,5,6-pentafluoro-phenyl)sulfonamido)acetamido)-3-cyclopropoxybenzoic acid], the IC50 with MV4-11 cells was in the range of 0.01 to 316 nM; in series [1] it was 30000 to 100000 nM. This molecule registered a half-life at 25 μM in the series with glutathione (GSH) of 9.23 to 1670 h.

For `COc1cc(C(=O)O)ccc1N(Cc1cc(C2CC2)cc(C(C)(C)C)c1)C(=O)CN(Cc1cnccc1C(F)(F)F)S(=O)(=O)c1c(F)c(F)c(F)c(F)c1F` [Compound 1116, 4-(N-(3-(tert-butyl)-5-cyclopropylbenzyl)-2-(N-((4-(trifluoromethyl)pyridin-3-yl)methyl)-(2,3,4,5,6-pentafluoro-phenyl)sulfonamido)acetamido)-3-methoxybenzoic acid], the values for the 50% inhibitory concentration (IC50) (in the series on MV4-11 cells; in series [1]) were 0.01 to 316 nM and 10000 to 20000 nM, respectively. For the same molecule, in the series with glutathione (GSH), the half-life at 25 μM is 2.37 to 4.12 h.

For the molecule `CC(C)(C)c1cc(CN(C(=O)CN(Cc2ncccc2C(F)(F)F)S(=O)(=O)c2c(F)c(F)c(F)c(F)c2F)c2ccc(C(=O)O)cc2OC2CC2)cc(C2CC2)c1` [Compound 1119, 4-(N-(3-(tert-butyl)-5-cyclopropylbenzyl)-2-(N-((3-(trifluoromethyl)pyridin-2-yl)methyl)-(2,3,4,5,6-pentafluoro-phenyl)sulfonamido)acetamido)-3-cyclopropoxybenzoic acid], the IC50 is 316 to 1000 nM in the series with MV4-11 cells and 30000 to 100000 nM in series [1]. This molecule displayed a half-life at 25 μM with glutathione (GSH) of 4.12 to 9.23 h.

For `CC(C)(C)c1cc(CN(C(=O)CN(Cc2c(F)cc(F)cc2F)S(=O)(=O)c2c(F)c(F)c(F)c(F)c2F)c2ccc(C(=O)O)cc2OC2CC2)cc(C2CC2)c1` [Compound 1122, 4-(N-(3-(tert-butyl)-5-cyclopropylbenzyl)-2-(N-(2,4,6-trifluorobenzyl)-(2,3,4,5,6-pentafluoro-phenyl)sulfonamido)acetamido)-3-cyclopropoxybenzoic acid], the IC50 with MV4-11 cells lay within 0.01 to 316 nM; in series [1], 10000 to 20000 nM. The half-life at 25 μM in the series with glutathione (GSH) fell in the range of 9.23 to 1670 h.

On to `CC(C)(C)c1cc(CN(C(=O)CN(Cc2c(F)cc(F)cc2F)S(=O)(=O)c2c(F)c(F)c(F)c(F)c2F)c2ccc(C(=O)O)cc2C2CC2)cc(C2CC2)c1` [Compound 1123, 4-(N-(3-(tert-butyl)-5-cyclopropylbenzyl)-2-(N-(2,4,6-trifluorobenzyl)-(2,3,4,5,6-pentafluoro-phenyl)sulfonamido)acetamido)-3-cyclopropylbenzoic acid], for which the IC50 with MV4-11 cells lay in the range of 0.01 to 316 nM; in series [1], 1 to 10000 nM. Besides, the half-life at 25 μM in the series on glutathione (GSH) was 9.23 to 1670 h.

In the case of `O=C(O)c1ccc(N(Cc2cc(C3CC3)cc(C3CC3)c2)C(=O)CN(Cc2ccccc2C(F)(F)F)S(=O)(=O)c2c(F)c(F)c(F)c(F)c2F)c(OC2CC2)c1` [Compound 1141], the IC50 with MV4-11 cells lay within 0.01 to 316 nM; in series [1], 20000 to 30000 nM. Besides, in the series on glutathione (GSH), the half-life at 25 μM lay in the range of 4.12 to 9.23 h.
